Measurements taken from patent US9023821B2, “Use of MicroRNA for treating diseases associated with a dysfunction of the cilia in multiciliated epithelial cells” (Centre National de la Recherche Scientifique, priority 2009, dated 2015).

Tests used:
[1] = system: human airway epithelial cells (HAECs); assay: High-throughput sequencing (HTS) of miRNAs at four stages of differentiation of HAECs; conditions: for Modulation (ratio of the level of intensity of expression in log2 in two stages of differentiation) measured by high-throughput sequencing, D7 − D0 / Modulation (ratio of the level of intensity of expression in log2 in two stages of differentiation) measured by high-throughput sequencing, FC − D7 / Modulation (ratio of the level of intensity of expression in log2 in two stages of differentiation) measured by high-throughput sequencing, WD − D0 / Modulation (ratio of the level of intensity of expression in log2 in two stages of differentiation) measured by high-throughput sequencing, WD − FC / Level of intensity of expression in log2 measured by high-throughput sequencing, D0 / Level of intensity of expression in log2 measured by high-throughput sequencing, D7 / Level of intensity of expression in log2 measured by high-throughput sequencing, FC / Level of intensity of expression in log2 measured by high-throughput sequencing, WD: Table VI; for Modulation (ratio of the level of intensity of expression in log2 in two stages of differentiation), D7 − D0 / Modulation (ratio of the level of intensity of expression in log2 in two stages of differentiation), FC − D7 / Modulation (ratio of the level of intensity of expression in log2 in two stages of differentiation), WD − FC / Abundance (%), D0 / Abundance (%), D7 / Abundance (%), FC / Abundance (%), WD: HTS; for Abundance (%), D0: ALI-D0; for Abundance (%), D7: ALI-D7; for Abundance (%), FC: ALI-FC; for Abundance (%), WD: ALI-WD; for Level of intensity of expression in log2 At the differentiated stage (WD) measured in HTS: healthy human airway epithelial tissue; for Level of intensity of expression in log2 measured by high-throughput sequencing, D0: stage D0; for Level of intensity of expression in log2 measured by high-throughput sequencing, D7: stage D7; for Level of intensity of expression in log2 measured by high-throughput sequencing, FC: stage FC; for Level of intensity of expression in log2 At the differentiated stage (WD) measured in HTS / Level of intensity of expression in log2 measured by high-throughput sequencing, WD: stage WD
In short: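 Cells at four air-liquid interface differentiation stages were lysed and total RNA with miRNAs purified. Adaptor Mix A or B ligation (16° C, 2-16 h) allowed 5′ or 3′ end sequencing. Abundance cut-off was 1% of total miRNAs in at least one stage.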

[2] = system: human airway epithelial cells (HAECs); assay: Agilent miRNA chips, miRNA expression at four stages of differentiation of HAECs; conditions: for Modulation (ratio of the level of intensity of expression in log2 in two stages of differentiation) measured with the Agilent chips, D7 − D0 / Modulation (ratio of the level of intensity of expression in log2 in two stages of differentiation) measured with the Agilent chips, FC − D7 / Modulation (ratio of the level of intensity of expression in log2 in two stages of differentiation) measured with the Agilent chips, WD − D0 / Modulation (ratio of the level of intensity of expression in log2 in two stages of differentiation) measured with the Agilent chips, WD − FC / Level of intensity of expression in log2 measured with the Agilent chips, D0 / Level of intensity of expression in log2 measured with the Agilent chips, D7 / Level of intensity of expression in log2 measured with the Agilent chips, FC / Level of intensity of expression in log2 measured with the Agilent chips, WD: Table VI; for Modulation (ratio of the level of intensity of expression in log2 at two stages of differentiation), FC − D7 / Modulation (ratio of the level of intensity of expression in log2 at two stages of differentiation), WD − FC: Agilent miRNA chips, Table V; for Level of intensity of expression in log2 measured with the Agilent chips, D0: stage D0; for Level of intensity of expression in log2 measured with the Agilent chips, D7: stage D7; for Level of intensity of expression in log2 measured with the Agilent chips, FC: stage FC; for Level of intensity of expression in log2 measured with the Agilent chips, WD: stage WD
In short: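 Microarray v2 (866 human + 89 viral miRNAs; miRBase v.12.0). Input: RNA from the same donors as sequencing. Labelling/hybridization per kit protocol. Profiles cross-checked vs sequencing.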

[3] = system: basal cells and pyramidal cells of the airway epithelium; assay: miRNA expression in sorted basal cells versus pyramidal cells (ciliated + secretory), HTS and Agilent chips; design: species or system human; conditions: for Modulation of expression of the miRNAs in pyramidal cells (323(−)) relative to basal cells 323(+): HTS and Agilent chips; for Intensity of the level of expression in log2 in pyramidal cells (323(−)): pyramidal cells (ciliated + secretory)
In short: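 Read-out is miRNA profiling of total RNA, by Agilent chips or by high-throughput sequencing, in two sorted populations. These were basal cells (CD151+/TF+) and pyramidal ciliated/secretory cells (CD151−/TF−) from airway epithelium of 3 donors.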

Substance	Modulation (ratio of the level of intensity of expression in log2 in two stages of differentiation) measured by high-throughput sequencing, D7 − D0 [1]	Modulation (ratio of the level of intensity of expression in log2 in two stages of differentiation) measured by high-throughput sequencing, FC − D7 [1]	Modulation (ratio of the level of intensity of expression in log2 in two stages of differentiation) measured by high-throughput sequencing, WD − D0 [1]	Modulation (ratio of the level of intensity of expression in log2 in two stages of differentiation) measured by high-throughput sequencing, WD − FC [1]	Level of intensity of expression in log2 At the differentiated stage (WD) measured in HTS [1]	Level of intensity of expression in log2 measured by high-throughput sequencing, D0 [1]	Level of intensity of expression in log2 measured by high-throughput sequencing, D7 [1]	Level of intensity of expression in log2 measured by high-throughput sequencing, FC [1]	Level of intensity of expression in log2 measured by high-throughput sequencing, WD [1]	Modulation (ratio of the level of intensity of expression in log2 in two stages of differentiation) measured with the Agilent chips, D7 − D0 [2]	Modulation (ratio of the level of intensity of expression in log2 in two stages of differentiation) measured with the Agilent chips, FC − D7 [2]	Modulation (ratio of the level of intensity of expression in log2 in two stages of differentiation) measured with the Agilent chips, WD − D0 [2]	Modulation (ratio of the level of intensity of expression in log2 in two stages of differentiation) measured with the Agilent chips, WD − FC [2]	Level of intensity of expression in log2 measured with the Agilent chips, D0 [2]	Level of intensity of expression in log2 measured with the Agilent chips, D7 [2]	Level of intensity of expression in log2 measured with the Agilent chips, FC [2]	Level of intensity of expression in log2 measured with the Agilent chips, WD [2]	Modulation of expression of the miRNAs in pyramidal cells (323(−)) relative to basal cells 323(+) [3]	Intensity of the level of expression in log2 in basal cells (323(+)) [3]	Intensity of the level of expression in log2 in pyramidal cells (323(−)) [3]	also measured
hsa-miR-34c-5p: human miRNA, SEQ ID No. 40 (AGGCAGUGUAGUUAGCUGAUUGC; expressed or natural sequence; listed as Homo sapiens)	1.33 log2	4.02 log2	6.41 log2	1.06 log2	0.01 log2	7.88 log2	9.21 log2	13.23 log2	14.29 log2	2.35 log2	4.27 log2	7.44 log2	0.82 log2	3.94 log2	6.29 log2	10.56 log2	11.39 log2	5.74	4.75 log2	10.49 log2	Modulation (ratio of the level of intensity of expression in log2 in two stages of differentiation), D7 − D0 [1]: 1.33 log2; Modulation (ratio of the level of intensity of expression in log2 in two stages of differentiation), FC − D7 [1]: 4.02 log2; Modulation (ratio of the level of intensity of expression in log2 in two stages of differentiation), WD − FC [1]: 1.06 log2; Abundance (%), D0 [1]: 0.05%; Abundance (%), D7 [1]: 0.13%; Abundance (%), FC [1]: 2.05%; Abundance (%), WD [1]: 3.23%; Modulation (ratio of the level of intensity of expression in log2 at two stages of differentiation), FC − D7 [2]: 4.27 log2; Modulation (ratio of the level of intensity of expression in log2 at two stages of differentiation), WD − FC [2]: 0.82 log2
hsa-miR-92b: human miRNA, SEQ ID No. 49 (UAUUGCACUCGUCCCGGCCUCC; expressed or natural sequence; listed as Homo sapiens)	1.21 log2	4.12 log2	5.93 log2	0.60 log2	0.01 log2	7.49 log2	8.70 log2	12.82 log2	13.42 log2	0.48 log2	4.21 log2	4.39 log2	−0.29 log2	0.10 log2	0.57 log2	4.78 log2	4.49 log2	1.67	0.40 log2	2.07 log2	Modulation (ratio of the level of intensity of expression in log2 in two stages of differentiation), D7 − D0 [1]: 1.21 log2; Modulation (ratio of the level of intensity of expression in log2 in two stages of differentiation), FC − D7 [1]: 4.12 log2; Modulation (ratio of the level of intensity of expression in log2 in two stages of differentiation), WD − FC [1]: 0.60 log2; Abundance (%), D0 [1]: 0.04%; Abundance (%), D7 [1]: 0.09%; Abundance (%), FC [1]: 1.54%; Abundance (%), WD [1]: 1.77%
hsa-miR-96: human miRNA, SEQ ID No. 51 (UUUGGCACUAGCACAUUUUUGCU; expressed or natural sequence; listed as Homo sapiens)	−0.08 log2	−0.71 log2	0.02 log2	0.81 log2	12.65 log2	5.41 log2	5.33 log2	4.62 log2	5.43 log2	1.19 log2	−0.50 log2	0.64 log2	−0.04 log2	8.52 log2	9.71 log2	9.21 log2	9.16 log2	−1.51	6.81 log2	5.30 log2	Modulation (ratio of the level of intensity of expression in log2 at two stages of differentiation), FC − D7 [2]: −0.50 log2; Modulation (ratio of the level of intensity of expression in log2 at two stages of differentiation), WD − FC [2]: −0.04 log2
hsa-miR-99a: human miRNA, SEQ ID No. 52 (AACCCGUAGAUCCGAUCUUGUG; expressed or natural sequence; listed as Homo sapiens)	1.43 log2	0.77 log2	2.88 log2	0.69 log2	9.00 log2	9.77 log2	11.19 log2	11.96 log2	12.65 log2	2.33 log2	0.77 log2	3.28 log2	0.19 log2	5.02 log2	7.35 log2	8.12 log2	8.31 log2	0.99	5.42 log2	6.40 log2	Modulation (ratio of the level of intensity of expression in log2 in two stages of differentiation), D7 − D0 [1]: 1.43 log2; Modulation (ratio of the level of intensity of expression in log2 in two stages of differentiation), FC − D7 [1]: 0.77 log2; Modulation (ratio of the level of intensity of expression in log2 in two stages of differentiation), WD − FC [1]: 0.69 log2; Abundance (%), D0 [1]: 0.19%; Abundance (%), D7 [1]: 0.52%; Abundance (%), FC [1]: 0.85%; Abundance (%), WD [1]: 1.03%; Modulation (ratio of the level of intensity of expression in log2 at two stages of differentiation), FC − D7 [2]: 0.77 log2; Modulation (ratio of the level of intensity of expression in log2 at two stages of differentiation), WD − FC [2]: 0.19 log2
